Test results: the CombiSolv-Exp solvation set (Vermeire and Green 2021)

Experiment: solvent given as SMILES

ClCCl
Settings	solvation free energy, 298 K [kcal/mol]
in C1CCOC1	-4.27
in C1COCCO1	-4.09
in C=CCCCCCCCCCCCCCC	-2.77
in CC#N	-3.99
in CC(=O)N(C)C	-4.34
in CC(C)=O	-4.13
in CC(C)CC(C)(C)C	-2.84
in CC(C)O	-3.26
in CCC(C)=O	-4.05
in CCCCC	-3.09
in CCCCCCC	-2.91
in CCCCCCCC	-2.86
in CCCCCCCCC=CCCCCCCCC(=O)OCC(COC(=O)CCCCCCCC=CCCCCCCCC)OC(=O)CCCCCCCC=CCCCCCCCC	-3.37
in CCCCCCCCCCCCCC	-2.67
in CCCCCCCCCCCCCCCC	-2.72
in CCCCCCCCCCCCO	-2.91
in CCCCCCCCN(CCCCCCCC)CCCCCCCC	-2.82
in CCCCCCCCO	-3.08
in CCCCCN(CCCCC)CCCCC	-2.99
in CCCCCO	-3.19
in CCCCCl	-3.55
in CCCCN(C=O)CCCC	-3.92
in CCCCN(CCCC)CCCC	-2.87
in CCCCO	-3.29
in CCCCOC	-3.78
in CCCCOCCCC	-3.21
in CCCOCCC	-3.51
in CCN1CCCC1=O	-4.29
in CCN(CC)C(C)=O	-4.28
in CCNC(C)=O	-3.72
in CCNC=O	-3.7
in CCO	-3.36
in CCOC(=O)c1ccccc1C(=O)OCC	-3.51
in CCOC(C)=O	-4.04
in CCOCC	-3.87
in CN1CCCC1=O	-4.23
in CN1CCCCC1=O	-4.45
in CNC(C)=O	-3.74
in CO	-3.49
in COC(C)=O	-4.03
in CS(C)=O	-4.13
in Cc1ccc(C)cc1	-3.55
in Cc1cccc(C)c1	-3.58
in Cc1ccccc1C	-3.58
in ClC(Cl)(Cl)Cl	-3.36
in ClC(Cl)Cl	-3.62
in ClCCCl	-3.72
in Clc1ccccc1	-3.53
in N#Cc1ccccc1	-3.78
in NC=O	-2.66
in O	-1.32
in O=C1CCCCC1	-4.13
in [2H]O[2H]	-1.5

C#CC
Settings	solvation free energy, 298 K [kcal/mol]
in C1CCC2CCCCC2C1	-1.49
in C1COCCO1	-2.46
in CC1COC(=O)O1	-2.04
in CC(C)=O	-2.48
in CC(C)CC(C)(C)C	-1.66
in CCCCCCCCCCCCCCCC	-1.4
in CN1CCCC1=O	-2.47
in CN(C)C=O	-2.49
in CN(C)P(=O)(N(C)C)N(C)C	-2.6
in COC(C)=O	-2.51
in COCCOCCOCCOC	-2.03
in CS(C)=O	-2.14
in Nc1ccccc1	-2.01
in O	-0.48
in OCCCOCCCO	-1.53
in OCCO	-1.22
in OCc1ccccc1	-1.77

ClC(Br)Br
Settings	solvation free energy, 298 K [kcal/mol]
in CCCCCCCCO	-4.9

Cc1cccc(C(C)C)c1
Settings	solvation free energy, 298 K [kcal/mol]
in O	-0.72

CC(=O)C(C)C(C)=O
Settings	solvation free energy, 298 K [kcal/mol]
in O	-4.75

O=c1[nH]cc(Br)c(=O)[nH]1
Settings	solvation free energy, 298 K [kcal/mol]
in O	-18.2

CCCCCCCC(C)O (stereo not drawn)
Settings	solvation free energy, 298 K [kcal/mol]
in O	-3.57

CCCCCCCCCCCCCCCCCCCCCCCCC
Settings	solvation free energy, 298 K [kcal/mol]
in CC(=O)N(C)C	-17.1
in CC(C)(C)O	-15.3
in CN(C)C=O	-17.1
in COC(C)(C)C	-17.1
in O	5.39

COc1ccc(NS(=O)(=O)c2ccc(N)cc2)nn1
Settings	solvation free energy, 298 K [kcal/mol]
in O	-21.1

Nc1ccccc1-c1ccccc1
Settings	solvation free energy, 298 K [kcal/mol]
in O	-7.27

Clc1cc(Cl)c(Cl)c(Cl)c1
Settings	solvation free energy, 298 K [kcal/mol]
in CCCCCCCCO	-7.57
in O	-1.62

CCN(N=O)C(C)C
Settings	solvation free energy, 298 K [kcal/mol]
in O	-5.46

CCc1ccccc1O
Settings	solvation free energy, 298 K [kcal/mol]
in CCCCCC	-6.6
in O	-5.85

CCCCNCc1ccc(C)cc1
Settings	solvation free energy, 298 K [kcal/mol]
in O	-5.47

CCC=CCC=CCC=CCCCCCCCC(=O)OC
Settings	solvation free energy, 298 K [kcal/mol]
in O	-3.47

CN(C)C(=O)Nc1ccc(Cl)cc1
Settings	solvation free energy, 298 K [kcal/mol]
in C1CCOC1	-13.7
in CC(C)CC(C)(C)C	-9.58
in CC(C)CCO	-13.1
in CC(C)CO	-13.1
in CC(C)O	-13.1
in CCC(C)O	-13.1
in CCCC(C)O	-13
in CCCCC(CC)CO	-12.8
in CCCCCC	-9.81
in CCCCCCC	-9.75
in CCCCCCCC	-9.79
in CCCCCCCCCC	-9.8
in CCCCCCCCCCO	-12.8
in CCCCCCCO	-13
in CCCCCCO	-13.2
in CCCCCO	-13.2
in CCCCO	-13.3
in CCCCOC(C)=O	-12.8
in CCCCOCCCC	-11.6
in CCCO	-13.3
in CCO	-13.4
in CCOC(C)=O	-13.1
in CO	-13.7
in COC(C)=O	-13.1
in ClC(Cl)(Cl)Cl	-11.1
in ClC(Cl)Cl	-13.3
in ClCCCl	-13
in ClCCl	-13.3
in O	-10.4
